Values of other authors in patent US20230248791A1, “METHODS FOR MANUFACTURING ANGELICA GIGAS NAKAI EXTRACT USING FERMENTATION BACTERIA” (Sooy-K Co., Ltd., priority 2022, published 2023).

Legend:
[1] = tested on: ex vivo 3D human skin model
[2] = tested on: microphthalmia-associated transcription factors (MITFs); conditions: via PKA/CREB, p38/ERK MARK, PI3K/Akt/GSK-3β
cyclooxygenase-2 (COX-2) = biological target: T1, cyclooxygenase-2 (COX-2) (Homo sapiens, UniProt P35354)
T1 sequence (P35354 18-604): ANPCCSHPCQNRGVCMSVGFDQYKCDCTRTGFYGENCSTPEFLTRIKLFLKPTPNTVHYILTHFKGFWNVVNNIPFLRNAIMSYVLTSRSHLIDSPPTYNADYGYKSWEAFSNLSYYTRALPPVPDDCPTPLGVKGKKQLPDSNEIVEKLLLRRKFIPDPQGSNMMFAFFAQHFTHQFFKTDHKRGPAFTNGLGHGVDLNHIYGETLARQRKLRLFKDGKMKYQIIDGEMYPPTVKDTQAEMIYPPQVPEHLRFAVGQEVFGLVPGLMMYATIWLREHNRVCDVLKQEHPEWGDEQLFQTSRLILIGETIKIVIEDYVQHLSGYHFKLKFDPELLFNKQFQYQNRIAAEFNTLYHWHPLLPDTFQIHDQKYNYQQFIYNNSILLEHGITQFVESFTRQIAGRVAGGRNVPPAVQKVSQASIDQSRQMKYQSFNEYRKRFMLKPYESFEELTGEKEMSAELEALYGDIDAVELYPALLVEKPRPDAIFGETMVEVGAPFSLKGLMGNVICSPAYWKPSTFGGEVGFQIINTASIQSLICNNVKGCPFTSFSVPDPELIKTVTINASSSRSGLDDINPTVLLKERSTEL

## CC(C)=CC(=O)OC1Cc2cc3ccc(=O)oc3cc2OC1(C)C (stereo not shown) [decursin, 3-methyl-2-butenoic acid 2,2-dimethyl-8-oxo-3,4-dihydro-2H,8H-pyrano[3,2-g]chromen-3-yl ester]
[1]
  melanin synthesis: prevents melanin synthesis
Human dermal fibroblast
  UVA/UVB-induced skin damage and skin aging: inhibits UVA/UVB-induced skin damage and skin aging
[2]
  effect on MITFs, major transcription factor in melanin synthesis: inhibit
cyclooxygenase-2 (COX-2)
  effect on COX-2 (anti-inflammatory mechanism): inhibiting cyclooxygenase-2 (COX-2)
